Data taken from patent US6602517B2, “Dietary supplements for treating inflammation-related diseases” (Metagenics, Inc., priority 1999, dated 2003).

Test: ORAC assay (inhibition of peroxyl-radical quenching of β-phycoerythrin fluorescence)
Format: biochemical
Conditions: for AUC/μg mean: pure samples (100% by weight); for ORAC units (U): pure samples, normalized to Trolox on a weight basis
Text: Method: In order to determine the antioxidant capacity of the subject phytonutrients, the ORAC assay (Cao, G et al., Free Rad. Biol. Med. 14: 303-311[…]) was utilized. This simple procedure relies on the fact that peroxyl radicals will quench the fluorescence of β-phycoerythrin (β-PE) The addition of an antioxidant capable of scavenging these radicals is able to inhibit fluorescence quenching. Fluorescence is monitored as a function of time and the extent of quenching and its inhibition can be determined by calculating the area under the curve (AUC).
A typical reaction will contain 1.67×10^−8 M β-PE in phosphate buffer and 3×10^−3 M 2,2′-azobis(2-amidinopropane)dihydochloride (AAPH) as well as test material. The reaction is initiated by the addition of the peroxyl-radical generating reagent AAPH. […] The difference, or net protection, is equal to AUCsample−AUCblank, and represents the antioxidant capacity of the sample. […] Where one ORAC unit (U) is defined as the net protection provided by 1 nmol/ml Trolox (i.e., 1 μM). […] The final results are normalized to Trolox on a weight basis.
units=(AUC/μg)test/(AUC/μg)trolox.
To generate the data set forth in the present example, samples were prepared in acetonitrile, sometimes with the aid of sonication to facilitate dissolution. One to five μl of sample was added to each 3 ml cuvette, the reaction initiated with AAPH and fluorescence monitored until the quenching was complete. The predicted value for the mixtures was calculated by using the following equation: […]

For `Cc1c(C)c2c(c(C)c1O)CCC(C)(C(=O)O)O2` (centres unmarked) [Trolox, reference compound], the AUC/μg mean was 8.9 AUC/μg and the “ORAC units (U)” value was 1.00 U.

`COc1cc(/C=C/C(=O)CC(=O)/C=C/c2ccc(O)c(OC)c2)ccc1O` [curcumin] gave an AUC/μg mean of 15.93 AUC/μg.

With `O=c1c(O)c(-c2ccc(O)c(O)c2)oc2cc(O)cc(O)c12` [quercetin] the AUC/μg mean was 14.45 AUC/μg and the “ORAC units (U)” value was 1.62 U.
